Measured values from article PMC4492635 (Drug Design, Development and Therapy, 2015).

Key:
hHMGR = target: T1, hHMGR (Homo sapiens, UniProt P04035); assay: Enzymatic assay of recombinant hHMGR; format: biochemical; conditions: result in words, Figure 4
T1 sequence (P04035 450-883 limits assumed): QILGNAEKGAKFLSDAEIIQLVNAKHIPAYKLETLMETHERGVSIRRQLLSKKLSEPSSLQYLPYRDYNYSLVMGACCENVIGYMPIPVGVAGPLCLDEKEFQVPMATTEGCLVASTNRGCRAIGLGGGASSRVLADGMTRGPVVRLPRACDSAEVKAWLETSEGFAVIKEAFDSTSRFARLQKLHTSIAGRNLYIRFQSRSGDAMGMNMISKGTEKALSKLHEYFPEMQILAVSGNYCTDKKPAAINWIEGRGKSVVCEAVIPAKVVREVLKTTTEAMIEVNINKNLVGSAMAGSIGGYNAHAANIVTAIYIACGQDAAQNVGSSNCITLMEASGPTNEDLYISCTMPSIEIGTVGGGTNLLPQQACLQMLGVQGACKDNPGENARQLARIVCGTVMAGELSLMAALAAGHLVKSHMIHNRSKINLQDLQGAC

HepG2 cells = assay: MTT assay, cellular toxicity on HepG2 cells; format: cell-based; conditions: 24 h treatment, result in words

Structure (SMILES)	inhibition of hHMGR activities (hHMGR)	cytotoxic effect (HepG2 cells)
CCCCCCCCCCCCCCCCCCCCCCO [Compound 8, Docosan-1-ol]	effectively inhibit	milder cytotoxic effect
COc1cc(/C=C/C(=O)CC(=O)/C=C/c2ccc(O)c(OC)c2)ccc1O [Compound 3, (1E,6E)-1,7-bis(4-hydroxy-3-methoxyphenyl)-1,6-heptadiene-3,5-dione]	effectively inhibit	–
Nc1nc(O)c2nc(CNc3ccc(C(=O)N[C@@H](CCC(=O)O)C(=O)O)cc3)cnc2n1 [Compound 10, (2S)-2-[(4-{[(2-amino-4-hydroxypteridin-6-yl)methyl]amino}phenyl) formamido] pentanedioic acid]	no inhibitory capability	–
O=C(/C=C/c1ccc(O)c2oc(-c3ccc(O)c(O)c3)cc12)O[C@H](Cc1ccc(O)c(O)c1)C(=O)O [Compound 1, (2r)-3-(3,4-dihydroxyphenyl)-2-[(E)-3-[2-(3,4-dihydroxyphenyl)-7-hydroxy-1-benzofuran-4-yl]prop-2-enoyl] oxypropanoic acid]	effectively inhibit	–
